According to patent publication US20110319352A1, “Compounds That Bind Oxysterol Binding Proteins, and Methods of Use Thereof” (President and Fellows of Harvard College, priority 2008, published 2011):
Residues, ends and D or L forms follow the SMILES beside them. *: point of attachment. Cbz = O=C(OCc1ccccc1)*

Legend:
OSBP protein levels = OSBP protein levels by western blot; assay type: cell-based
Method: One unanticipated discovery from the IF studies was that, after several hours, CRAM treatment of cells caused a significant reduction in the intensity of the OSBP fluorescent signal. This could mean that CRAMs are inducing a reduction in OSBP protein levels: an effect not observed with 25-OHC. The amount of OSBP protein in cells exposed to CRAMs was measured by western blot. […] Cephalostatin 1 induced a 70% reduction in OSBP at 12 h, and OSW-1 caused a 69% reduction in OSBP at 24 h. […] This supports a situation where reduction of OSBP levels by 1 and 2 is a result of a proteasome-dependent degradation process. One possible scenario is that 1 and 2 are also causing protein level reductions of ORPs and this is the source of cytotoxicity of CRAMs.

pERK1/2 in HCT-116 cells = test: Western blot of pERK1/2; assay type: cell-based; details: cephalostatin 1 50 nM, 25-OHC 20 μM 12 h
Method: FIG. 21 depicts Western blot and densitometry analysis of pERK1/2 in HCT-116 cells during treatment with 50 nM cephalostatin 1. 25-OHC (20 μM) and okadaic acid (OKA, 10 nM) treatments were for 12 h and 24 h, respectively.
As another test of whether CRAMs perturb a known OSBP function, it was determined whether CRAMs induce changes to the phosphorylation state of ERK1/2. As mentioned above, 25-OHC binds OSBP and causes disruption of a complex between OSBP and the phosphatases HePTP and PP2A. This blocks dephosphorylation of pERK1/2, leading to a persistence of pERK1/2. Opposing this effect is cholesterol, which binds OSBP, inducing formation of the OSBP-HePTP-PP2A ternary complex, causing ERK1/2 dephosphorylation (FIG. 13).

[1] = tested on: OSBP localization in HCT-116 p21+/+ cells; test: OSBP localization by immunofluorescence confocal microscopy; assay type: cell-based; details: compound exposure 4 h (OSW-1 1 nM)
Method: FIG. 22 depicts OSBP localization in HCT-116 p21^+/+ cells imaged by immunofluorescence confocal microscopy. Immunofluorescence was used to image OSBP and the trans-Golgi protein p230 after compound exposure for 4 h. […] was labeled with Hoescht 33342.
As another way to investigate how CRAMs may affect OSBP, immunofluorescence (IF) experiments were performed in HCT-116 p21^+/+ cells to determine whether OSBP localization was altered upon treatment with different CRAMs. In untreated cells, OSBP resides largely at ER/cytoplasmic sites with a partial localization at the Golgi (FIG. 22A).
This translocation has been reported many times in the literature as an effect of 25-OHC on OSBP. Treatment of cells with OSW-1 at 1 nM for 4 h caused a dramatic and unprecedented effect on OSBP localization (FIG. 22C). […] In this case p230 has been dispersed (see […]). The translocation of OSBP induced by 2 is distinct from that of 25-OHC. […] They also reveal that the effects on OSBP translocation by 1 and 2 are distinct from 25-OHC.

[2] = cytotoxicity of 25-OHC (cells not named); assay type: cell-based; details: doses up to 1000 times its OSBP Kd
recombinant OSBP-myc-his = target: T1, recombinant OSBP-myc-his (Homo sapiens, UniProt P22059); test: competitive binding assay, displacement of [3H]-25-OHC from OSBP (charcoal-dextran, liquid scintillation counting); details: for displacement of OSBP-bound [3H]-25-OHC: at low micromolar-concentrations
T1 construct: made in house; host or cells: HEK-293T (crude S100 lysate, not purified)
T1 sequence (P22059 1-807): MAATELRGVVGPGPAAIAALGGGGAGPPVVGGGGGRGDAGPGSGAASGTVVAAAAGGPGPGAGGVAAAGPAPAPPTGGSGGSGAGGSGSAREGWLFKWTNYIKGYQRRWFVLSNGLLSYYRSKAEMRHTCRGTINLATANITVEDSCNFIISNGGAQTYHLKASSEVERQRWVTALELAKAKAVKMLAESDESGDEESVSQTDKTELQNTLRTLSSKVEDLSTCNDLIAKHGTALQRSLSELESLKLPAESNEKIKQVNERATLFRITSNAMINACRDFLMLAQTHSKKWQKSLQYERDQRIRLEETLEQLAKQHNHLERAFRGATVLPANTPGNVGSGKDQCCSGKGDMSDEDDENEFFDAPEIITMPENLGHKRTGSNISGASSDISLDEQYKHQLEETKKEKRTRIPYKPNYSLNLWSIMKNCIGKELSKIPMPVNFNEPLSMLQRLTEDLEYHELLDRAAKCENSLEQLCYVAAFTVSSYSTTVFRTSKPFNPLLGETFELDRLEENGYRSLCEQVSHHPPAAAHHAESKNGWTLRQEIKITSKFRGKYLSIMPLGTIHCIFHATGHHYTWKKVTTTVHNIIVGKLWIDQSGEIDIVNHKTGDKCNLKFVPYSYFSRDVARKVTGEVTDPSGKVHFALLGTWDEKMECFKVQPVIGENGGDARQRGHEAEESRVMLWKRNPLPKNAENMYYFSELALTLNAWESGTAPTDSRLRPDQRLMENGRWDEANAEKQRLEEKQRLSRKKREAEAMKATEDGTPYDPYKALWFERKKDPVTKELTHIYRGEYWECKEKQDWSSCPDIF
Method: It has been determined that CRAMs inhibit the binding of radiolabelled 25-OHC ([^3H]-25-OHC) to recombinant OSBP-myc-his and ORP4-myc-his overexpressed in HEK-293T lysate (FIG. 18). It is known that 25-hydroxycholesterol is a high affinity ligand for OSBP and ORP4. Increasing concentrations of CRAMs or OSW-1 analogs were incubated with 20 nM [^3H]-25-OHC in OSBP-myc-his or ORP4-myc-his S100 lysate for 16 h at 4° C. after which unbound sterol was removed using charcoal-dextran and the bound sterol quantified by LCS (liquid scintillation counting).
These experiments provide evidence that CRAMs are ligands of OSBP and ORP4, and in the case of 1 and 2, they are high affinity ligands.
To measure the Kis of CRAMs to OSBP and ORP4 reported above, a previously reported dextran-coated charcoal assay was adapted into a 96-well format. […] To solve these limitations a binding SPA (scintillation proximity assay) for OSBP/ORPs (FIG. 26) will be developed.

HCT-116 p21−/− cells [3] = test: growth inhibition of HCT-116 cells lacking p21 (p21 dependence); assay type: cell-based; details: for dependence of growth inhibition on p21 status: HCT-116 p21−/− versus p21+/+
Text: Values are mean±SD of 3 individual experiments each performed in sextublicate or from a single experiment performed in sextublicate. Values for […] were reported in the literature (see Beutler J A, Shoemaker R H, Johnson T, Boyd M R. “Cytotoxic geranyl stilbenes from Macaranga schweinfurthii,” J. Nat. Prod. 1998, 61(12), 1509-12).
[5] […] This shared p21 differential cytotoxicity supports the idea of a common CRAM mechanism of action and likely similar target. […] However, caution has to be exercised in concluding that compounds found to be selective for p21 deficient HCT-116 cells are truly synthetic lethal with p21. It was recently reported that compounds shown to be hypersensitive to HCT-116 p21^−/− cells was actually due to an overexpression of p53 in that cell line. Subsequent siRNA knockdown of p53 eliminated the apparent p21 synthetic lethality.

[4] = tested on: HCT-116 p21−/− shNT and shOSBP cells; test: CRAM cytotoxicity after shRNA knockdown of OSBP, HCT-116 p21−/−; assay type: cell-based; details: HCT-116 p21−/−; for sensitization (GI50 shift) by OSBP knockdown: OSBP knockdown by 84%
Text: FIG. 17 depicts CRAM cytotoxicity in shRNA OSBP knockdown cell lines. A: Dose curves from a representative experiment. B: GI50 values of CRAMs and control compounds in HCT-116 p21−/− shNT and shOSBP cells and densitometric analysis of OSBP-levels. shNT=non-targeting shRNA, shOSBP=OSBP-targeting shRNA; * P=0.0006 (n=4), ** P=0.0002 (n=3), *** P=0.0003 (n=3), and **** P≦0.0001 (n=7) compared to shNT-treated cells.
To determine whether the cytotoxicity of CRAMs depends on the amount of OSBP in cells, the effects of shRNA knockdown of OSBP on the growth inhibitory activity of CRAMs was measured. Treatment of HCT-116 p21^−/− cells with shRNA targeted to OSBP [24] caused an 84% reduction in the level of OSBP as measured by western blot (FIG. 17B, bottom right).

HCT-116 p21−/− cells [5] = details: cited from earlier work
HCT-116 p21+/+ cells = details: literature value [6]; cited from earlier work
NCI-60 = details: read-out: GI50, average against the NCI-60; cited from earlier work
tumor xenograft = details: i.p. 9.3 mg/kg (Q2D×4); cited from earlier work

Molecule: CC(C)C[C@@H](C=O)NC(=O)[C@H](CC(C)C)NC(=O)[C@H](CC(C)C)NC(=O)OCc1ccccc1 [MG132, reference compound] (Cbz-Leu-Leu-Leu-aldehyde)
- effect on OSBP protein levels (OSBP protein levels): complete rescue of OSBP levels

Molecule: C[C@H](CCCC(C)(C)O)[C@H]1CC[C@H]2[C@@H]3CC=C4C[C@@H](O)CC[C@]4(C)[C@H]3CC[C@]12C [25-OHC, 25-hydroxycholesterol, reference compound]
- pERK1/2 levels (pERK1/2 in HCT-116 cells): had the same effect as CRAMs
- effect on OSBP localization [1]: OSBP translocates to the Golgi
- effect on OSBP protein levels (OSBP protein levels): not observed
- cytotoxicity [2]: not cytotoxic

Molecule: ritterazine B
- displacement of OSBP-bound [3H]-25-OHC (recombinant OSBP-myc-his): displaced the bound ligand
- dependence of growth inhibition on p21 status (HCT-116 p21−/− cells [3]): selectively growth inhibitory for HCT-116 cells lacking p21
- sensitization by OSBP knockdown [4]: sensitized

Molecule: CC(/C=C/C=C(C)/C=C/C=C(\C)C(=O)O)=C1/C(=O)C[C@H]2[C@@]3(C)CCC(=O)C(C)(C)[C@@H]3CC[C@]12C [(−)-stellettin E]
- GI50 (HCT-116 p21−/− cells [5]; literature value [6]): 39 nM
- more cytotoxic to HCT-116 p21−/− compared to parental HCT-116 (HCT-116 p21−/− cells [5]; ratio of GI50, literature): 117 times
- more active in HCT-116 lacking the p21 protein (HCT-116 p21−/− cells [5]; reported in the literature): 117 fold
- GI50 (HCT-116 p21+/+ cells): 4570 nM

Molecule: C[C@@H]1[C@]2(O[C@H]3C=C4[C@@H]5CC[C@H]6Cc7nc8c(nc7C[C@]6(C)[C@H]5C[C@@H](O)[C@]4(C)[C@]31O)C[C@@H]1CC[C@H]3C4=CC[C@@H]5[C@H](C)[C@@]6(OC[C@]45C(=O)C[C@@H]3[C@@]1(C)C8)OC(C)(C)C[C@H]6O)O[C@](C)(CO)C[C@H]2O [Cephalostatin 1]
- Ki (recombinant OSBP-myc-his; 20 nM [3H]-25-OHC, OSBP-myc-his S100 lysate (HEK-293T), 16 h at 4° C., read-out: Ki, displacing OSBP-bound [3H]-25-OHC): 50 nM
- differential GI50, HCT-116 p21−/− versus p21+/+ (HCT-116 p21−/− cells [3]; 48 h (FIG. 14)): 44 fold
- sensitization (GI50 shift) by OSBP knockdown [4]: 3.5 fold
- pERK1/2 levels (pERK1/2 in HCT-116 cells): significant increase in pERK1/2 starting at 12 h and persisting for at least 24 h
- effect on OSBP localization [1]: caused a significant amount of OSBP to co-localize with the plasma membrane
- effect on OSBP protein levels (OSBP protein levels): time-dependent reduction in OSBP protein levels
- reduction in OSBP (OSBP protein levels; at 12 h): 70%

Molecule: COc1cc(/C=C/c2cc(O)c(C/C=C(\C)CCC=C(C)C)c(O)c2)cc2c1O[C@]1(C)C[C@@H](O)[C@@H](O)C(C)(C)[C@H]1C2 [Schweinfurthin B, schweinfurthin B, reference compound]
- effect on OSBP localization [1]: induced OSBP translocation, but in a manner similar to the 25-OHC effect

Molecule: CC(=O)O[C@H]1C(=O)[C@@]2(C)[C@H]([C@H](OC(=O)c3ccccc3)[C@]3(O)C[C@H](OC(=O)[C@H](O)[C@@H](NC(=O)c4ccccc4)c4ccccc4)C(C)=C1C3(C)C)[C@]1(OC(C)=O)CO[C@@H]1C[C@@H]2O [taxol, reference compound]
- sensitization by OSBP knockdown [4]: does not sensitize

Molecule: C[C@H]1CCC/C=C/[C@@H]2C[C@H](O)C[C@H]2[C@H](O)/C=C/C(=O)O1 [brefeldin A, reference compound]
- sensitization by OSBP knockdown [4]: does not sensitize

Molecule: schweinfurthin A
- displacement of OSBP-bound [3H]-25-OHC (recombinant OSBP-myc-his): displaced the bound ligand
- dependence of growth inhibition on p21 status (HCT-116 p21−/− cells [3]): selectively growth inhibitory for HCT-116 cells lacking p21
- sensitization by OSBP knockdown [4]: sensitizes
- sensitization (GI50 shift) by OSBP knockdown [4]: 8.9 fold
- GI50 (NCI-60): 360 nM
- toxicity in xenograft mice (tumor xenograft): without overt toxicity
- tumor volume (tumor xenograft): reduction in tumor volume compared to vehicle-treated controls

Molecule: CC(C)C[C@H](NC(=O)[C@H](Cc1ccccc1)NC(=O)c1cnccn1)B(O)O [bortezomib, reference compound]
- sensitization by OSBP knockdown [4]: does not sensitize
